29 compounds from patent US20250019382A1, “NOVEL INHIBITORS OF CYCLIN-DEPENDENT KINASES” (Origenis Gmbh, priority 2021, published 2025) can be followed below.

T1 sequence (P50750 whole entry): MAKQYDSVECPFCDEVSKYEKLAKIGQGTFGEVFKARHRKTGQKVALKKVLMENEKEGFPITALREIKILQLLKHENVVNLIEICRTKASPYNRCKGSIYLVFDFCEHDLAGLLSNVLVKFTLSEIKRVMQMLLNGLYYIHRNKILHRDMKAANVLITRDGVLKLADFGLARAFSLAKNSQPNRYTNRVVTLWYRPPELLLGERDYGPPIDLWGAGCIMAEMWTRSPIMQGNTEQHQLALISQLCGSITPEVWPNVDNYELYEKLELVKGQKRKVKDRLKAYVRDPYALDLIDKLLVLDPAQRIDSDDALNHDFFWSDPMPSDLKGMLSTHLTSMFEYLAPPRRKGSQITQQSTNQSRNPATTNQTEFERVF
T1 sequence (O60563 whole entry partner): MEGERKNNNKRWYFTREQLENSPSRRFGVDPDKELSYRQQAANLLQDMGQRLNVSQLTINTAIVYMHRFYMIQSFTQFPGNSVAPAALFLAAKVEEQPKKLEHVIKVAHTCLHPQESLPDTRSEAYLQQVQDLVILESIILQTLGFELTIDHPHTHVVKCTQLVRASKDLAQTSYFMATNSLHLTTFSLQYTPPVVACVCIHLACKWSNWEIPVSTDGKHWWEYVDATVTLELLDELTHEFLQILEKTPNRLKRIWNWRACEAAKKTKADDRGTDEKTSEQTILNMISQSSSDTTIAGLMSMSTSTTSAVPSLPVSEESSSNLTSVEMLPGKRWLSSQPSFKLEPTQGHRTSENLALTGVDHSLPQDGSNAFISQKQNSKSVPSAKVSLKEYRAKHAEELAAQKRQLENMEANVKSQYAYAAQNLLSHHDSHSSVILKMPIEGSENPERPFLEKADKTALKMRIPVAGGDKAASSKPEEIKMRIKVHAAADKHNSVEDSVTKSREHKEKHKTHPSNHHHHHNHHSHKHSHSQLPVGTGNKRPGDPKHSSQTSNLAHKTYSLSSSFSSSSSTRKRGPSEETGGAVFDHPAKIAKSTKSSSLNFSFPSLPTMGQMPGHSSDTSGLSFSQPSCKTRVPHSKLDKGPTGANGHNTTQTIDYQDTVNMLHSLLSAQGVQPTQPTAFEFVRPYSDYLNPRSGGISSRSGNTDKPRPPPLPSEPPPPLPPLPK

The assay addresses T1, CDK9/CyclinT1 (Homo sapiens, UniProt P50750).
T1 construct: purchased ProQinase/Reaction Biology, USA #0371-0345-1
Description: CDK9/T1 ADPGlo kinase assay. Format: biochemical. The following applies: CDK9/CyclinT1 6 nM, ATP 10 microM, PDKtide 40 microM, 120 min RT. The procedure: The testing compound was evaluated in 12 concentrations in a 1:3 dilution series, starting from 5microM as the highest concentration.
In a white 384 microplate (Greiner bio-one, Austria #784904,) with 2 microL of 3-fold concentrated CDK9/CyclinT1 (ProQinase/Reaction Biology, USA #0371-0345-1, LOT.: 012), final concentration (f.c.) 6 nM, in 1×kinase buffer, 2 microL of compound (3× fold concentrated in f.c. 1.66% DMSO/H2O) was added and incubated at Room Temperature (RT) for 10 min. Then 2 microL of Substrate/ATP-Mix (3×PDKtide f.c. 40 microM, SignalChem Biotech, Canada via Biozol, Eching, Germany #P10-58, LOT.: L2230-7 and 3×UltraPure ATP f.c. 10 microM (ADP Glo Kinase assay, Promega GmbH, Germany #V9102)) were added, mixed and incubated for 120 min at RT.
After incubation time, 5 microL of ADP Glo reagent (ready to use, ADP Glo Kinase assay, Promega GmbH, Germany #V9102) were added, mixed and incubated for 40 min at RT.
In the last step, 10 microL of ADP Glo Detection reagent (ready to use, ADP Glo Kinase assay, Promega GmbH, Germany #V9102) were added, mixed and incubated for 30 min at RT.
GloMax Discover GM3000 Reader (Promega GmbH, Germany 9700000249) was used for the readout.
The inhibitor concentration was plotted against the luminescence to determine the IC50 using XLFit 5.5 (IDBS, Guildford) to fit to a sigmoidal dose response curve with a variable slope.
(ADP-Glo first removes unused ATP, then detects ADP through luciferase.)
One may read the IC50 as the concentration that inhibits the measured activity by half. Higher therefore signals weaker potency in that assay. The compound `Fc1cccc(F)c1-c1nc(Nc2cnn(C3CCN(CC4CC4)CC3)c2)n2ncc(Cl)c2n1` [Example #100, 8-chloro-N-(1-(1-(cyclopropylmethyl)piperidin-4-yl)-1H-pyrazol-4-yl)-2-(2,6-difluorophenyl)pyrazolo[1,5-a][1,3,5]triazin-4-amine] yielded an IC50 below 20 nM. In the case of `Fc1cccc(Cl)c1-c1nc(Nc2cnn(C3CCN(C4CCOCC4)CC3)c2)n2ncc(Cl)c2n1` [Example #101, 8-chloro-2-(2-chloro-6-fluorophenyl)-N-(1-(1-(tetrahydro-2H-pyran-4-yl)piperidin-4-yl)-1H-pyrazol-4-yl)pyrazolo[1,5-a][1,3,5]triazin-4-amine] it was below 20 nM.

Compound `Clc1cccc(Cl)c1-c1nc(Nc2cnn(C3CCN(C4CCOCC4)CC3)c2)n2ncc(Cl)c2n1` [Example #102, 8-chloro-2-(2,6-dichlorophenyl)-N-(1-(1-(tetrahydro-2H-pyran-4-yl)piperidin-4-yl)-1H-pyrazol-4-yl)pyrazolo[1,5-a][1,3,5]triazin-4-amine] displayed an IC50 below 200 nM. The compound `Fc1cccc(F)c1-c1nc(Nc2cnn(C3CCNCC3)c2)n2ncc(Cl)c2n1` [Example #103, 8-chloro-2-(2,6-difluorophenyl)-N-(1-(piperidin-4-yl)-1H-pyrazol-4-yl)pyrazolo[1,5-a][1,3,5]triazin-4-amine] displayed an IC50 below 20 nM. In the case of `Cn1cc(Nc2nc(-c3c(F)cccc3F)nc3c(Cl)cnn23)cn1` [Example #104, 8-chloro-2-(2,6-difluorophenyl)-N-(1-methyl-1H-pyrazol-4-yl)pyrazolo[1,5-a][1,3,5]triazin-4-amine] it was below 20 nM; in that of `CCN(CCO)CCCC(C)Nc1nc(-c2c(F)cccc2F)nc2c(Cl)cnn12` (centres unmarked) [Example #107, 2-((4-((8-chloro-2-(2,6-difluorophenyl)pyrazolo[1,5-a][1,3,5]triazin-4-yl)amino)pentyl)(ethyl)amino)ethan-1-ol], below 20 nM. As for `Fc1cccc(F)c1-c1nc(NC2CCC(N3CCOCC3)CC2)n2ncc(C(F)(F)F)c2n1` (centres unmarked) [Example #111, 2-(2,6-difluorophenyl)-N-((1r,4r)-4-morpholinocyclohexyl)-8-(trifluoromethyl)pyrazolo[1,5-a][1,3,5]triazin-4-amine], the IC50 is below 200 nM. `N[C@H]1CC[C@@H](Nc2nc(-c3c(F)cccc3F)nc3c(Cl)cnn23)CC1` [Example #112, (1s,4s)-N1-(8-chloro-2-(2,6-difluorophenyl)pyrazolo[1,5-a][1,3,5]triazin-4-yl)cyclohexane-1,4-diamine] returned an IC50 below 200 nM. `Fc1cccc(F)c1-c1nc(N[C@H]2CC[C@@H](N3CCCCC3)CC2)n2ncc(Cl)c2n1` [Example #113, 8-chloro-2-(2,6-difluorophenyl)-N-((1s,4s)-4-(piperidin-1-yl)cyclohexyl)pyrazolo[1,5-a][1,3,5]triazin-4-amine] displayed an IC50 below 1000 nM. Consider `Cn1cc(Nc2nc(-c3c(F)cccc3F)nc3c(C(F)(F)F)cnn23)cn1` [Example #115, 2-(2,6-difluorophenyl)-N-(1-methyl-1H-pyrazol-4-yl)-8-(trifluoromethyl)pyrazolo[1,5-a][1,3,5]triazin-4-amine], for which the IC50 was below 1000 nM. The value for `N[C@@H]1CC[C@@H](Nc2nc(-c3c(F)cccc3F)nc3c(Cl)cnn23)C1` [Example #116, (1R,3R)-N1-(8-chloro-2-(2,6-difluorophenyl)pyrazolo[1,5-a][1,3,5]triazin-4-yl)cyclopentane-1,3-diamine] was below 20 nM; that for `NC1CCC(Nc2nc(-c3c(F)cccc3F)nc3c(Cl)cnn23)C1` (centres unmarked) [Example #117, N1-(8-chloro-2-(2,6-difluorophenyl)pyrazolo[1,5-a][1,3,5]triazin-4-yl)cyclopentane-1,3-diamine] was below 20 nM.

Take `N[C@H]1CC[C@H](Nc2nc(-c3c(F)cccc3F)nc3c(C(F)(F)F)cnn23)CC1` [Example #118, (1r,4r)-N1-(2-(2,6-difluorophenyl)-8-(trifluoromethyl)pyrazolo[1,5-a][1,3,5]triazin-4-yl)cyclohexane-1,4-diamine]: the IC50 was below 20 nM.

For the compound `CN(C)[C@@H]1CC[C@@H](Nc2nc(-c3c(F)cccc3F)nc3c(Cl)cnn23)C1` [Example #119, (1R,3R)-N1-(8-chloro-2-(2,6-difluorophenyl)pyrazolo[1,5-a][1,3,5]triazin-4-yl)-N3,N3-dimethylcyclopentane-1,3-diamine], the IC50 is below 20 nM. In the case of `CN(C)[C@H]1CC[C@H](Nc2nc(-c3c(F)cccc3F)nc3c(C(F)(F)F)cnn23)CC1` [Example #120, (1r,4r)-N1-(2-(2,6-difluorophenyl)-8-(trifluoromethyl)pyrazolo[1,5-a][1,3,5]triazin-4-yl)-N4,N4-dimethylcyclohexane-1,4-diamine] it was below 200 nM; in that of `N[C@@H]1CC[C@H](Nc2nc(-c3c(F)cccc3F)nc3c(Cl)cnn23)C1` [Example #125, (1S,3R)-N1-(8-chloro-2-(2,6-difluorophenyl)pyrazolo[1,5-a][1,3,5]triazin-4-yl)cyclopentane-1,3-diamine], below 200 nM; in that of `OCCN[C@H]1CC[C@H](Nc2nc(-c3c(F)cccc3F)nc3c(Cl)cnn23)CC1` [Example #127, 2-(((1r,4r)-4-((8-chloro-2-(2,6-difluorophenyl)pyrazolo[1,5-a][1,3,5]triazin-4-yl)amino)cyclohexyl)amino)ethan-1-ol], below 20 nM.

With `NC1CC(Nc2nc(-c3c(F)cccc3F)nc3c(Cl)cnn23)C1` (centres unmarked) [Example #129, (1r,3r)-N1-(8-chloro-2-(2,6-difluorophenyl)pyrazolo[1,5-a][1,3,5]triazin-4-yl)cyclobutane-1,3-diamine], the IC50 was below 20 nM.

Consider `CN(C)[C@H]1C[C@H](Nc2nc(-c3c(F)cccc3F)nc3c(Cl)cnn23)C1` [Example #130, (1r,3r)-N1-(8-chloro-2-(2,6-difluorophenyl)pyrazolo[1,5-a][1,3,5]triazin-4-yl)-N3,N3-dimethylcyclobutane-1,3-diamine], for which the IC50 is below 200 nM. As for `CN(C)C1CCC(Nc2nc(-c3c(F)cc(F)cc3F)nc3c(Cl)cnn23)CC1` (centres unmarked) [Example #131, (1r,4r)-N1-(8-chloro-2-(2,4,6-trifluorophenyl)pyrazolo[1,5-a][1,3,5]triazin-4-yl)-N4,N4-dimethylcyclohexane-1,4-diamine], the IC50 was below 200 nM. `Cc1cc(F)c(-c2nc(NC3CCC(N(C)C)CC3)n3ncc(Cl)c3n2)c(F)c1` (centres unmarked) [Example #132, (1r,4r)-N1-(8-chloro-2-(2,6-difluoro-4-methylphenyl)pyrazolo[1,5-a][1,3,5]triazin-4-yl)-N4,N4-dimethylcyclohexane-1,4-diamine]: the IC50 is below 200 nM. Consider `CN(CCO)C1CCC(Nc2nc(-c3c(F)cccc3F)nc3c(Cl)cnn23)CC1` (centres unmarked) [Example #133, 2-(((1r,4r)-4-((8-chloro-2-(2,6-difluorophenyl)pyrazolo[1,5-a][1,3,5]triazin-4-yl)amino)cyclohexyl)(methyl)amino)ethan-1-ol], for which the IC50 is below 20 nM. The value for `CN(CCCO)C1CCC(Nc2nc(-c3c(F)cccc3F)nc3c(Cl)cnn23)CC1` (centres unmarked) [Example #134, 3-({4-[8-Chloro-2-(2,6-difluoro-phenyl)-pyrazolo[1,5-a][1,3,5]triazin-4-ylamino]-cyclohexyl}-methyl-amino)-propan-1-ol] was below 20 nM; that for `CN(CCCF)[C@H]1CC[C@H](Nc2nc(-c3c(F)cccc3F)nc3c(Cl)cnn23)CC1` [Example #135, (1r,4r)-N1-(8-chloro-2-(2,6-difluorophenyl)pyrazolo[1,5-a][1,3,5]triazin-4-yl)-N4-(3-fluoropropyl)-N4-methylcyclohexane-1,4-diamine] was below 20 nM; that for `Fc1cccc(F)c1-c1nc(NC2CCC(N3CCCC3)CC2)n2ncc(Cl)c2n1` (centres unmarked) [Example #138, 8-chloro-2-(2,6-difluorophenyl)-N-((1r,4r)-4-(pyrrolidin-1-yl)cyclohexyl)pyrazolo[1,5-a][1,3,5]triazin-4-amine] was below 20 nM. In the case of `C#Cc1cnn2c(N[C@H]3CC[C@H](N4CCOCC4)CC3)nc(-c3c(F)cccc3F)nc12` [Example #139, 2-(2,6-difluorophenyl)-8-ethynyl-N-((1r,4r)-4-morpholinocyclohexyl)pyrazolo[1,5-a][1,3,5]triazin-4-amine] it was below 200 nM; in that of `Fc1cccc(F)c1-c1nc(N[C@H]2CC[C@H](N3CCOCC3)CC2)n2ncc(I)c2n1` [Example #140, 2-(2,6-difluorophenyl)-8-iodo-N-((1r,4r)-4-morpholinocyclohexyl)pyrazolo[1,5-a][1,3,5]triazin-4-amine], below 200 nM; in that of `CN1CCC(Nc2nc(-c3c(F)cccc3F)nc3c(Cl)cnn23)CC1` [Example #141, 8-chloro-2-(2,6-difluorophenyl)-N-(1-methylpiperidin-4-yl)pyrazolo[1,5-a][1,3,5]triazin-4-amine], below 20 nM. The value for `CN1CCN([C@H]2CC[C@H](Nc3nc(-c4c(F)cccc4F)nc4c(Cl)cnn34)CC2)CC1` [Example #144, 8-chloro-2-(2,6-difluorophenyl)-N-((1r,4r)-4-(4-methylpiperazin-1-yl)cyclohexyl)pyrazolo[1,5-a][1,3,5]triazin-4-amine] was below 20 nM.
